Measured values taken from US20250197382A1, “KIF18A INHIBITOR” (WIGEN BIOMEDICINE TECHNOLOGY (SHANGHAI) CO., LTD., priority 2022, published 2025).

Target: Recombinant human KIF18A (1-467His-tagged) protein (Homo sapiens (Human), UniProt Q8NI77)
Test: KIF18A enzyme assay (microtubule-stimulated ATPase activity, ADP-Glo)
Type: biochemical
Conditions: 30 nM KIF18A, ATP 75 μM, read-out: inhibitory activity against KIF18A IC50
Procedure, shortened: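 Baculovirus-expressed human KIF18A (1-467, His-tagged; 30 nM) preincubated 15 min at room temperature with compound (22-point 2-fold series) in pH 7.5 Tris buffer containing 30 μg/mL pig microtubules and 1 μM paclitaxel.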

Chain of Recombinant human KIF18A (1-467His-tagged) protein (Q8NI77 1-467): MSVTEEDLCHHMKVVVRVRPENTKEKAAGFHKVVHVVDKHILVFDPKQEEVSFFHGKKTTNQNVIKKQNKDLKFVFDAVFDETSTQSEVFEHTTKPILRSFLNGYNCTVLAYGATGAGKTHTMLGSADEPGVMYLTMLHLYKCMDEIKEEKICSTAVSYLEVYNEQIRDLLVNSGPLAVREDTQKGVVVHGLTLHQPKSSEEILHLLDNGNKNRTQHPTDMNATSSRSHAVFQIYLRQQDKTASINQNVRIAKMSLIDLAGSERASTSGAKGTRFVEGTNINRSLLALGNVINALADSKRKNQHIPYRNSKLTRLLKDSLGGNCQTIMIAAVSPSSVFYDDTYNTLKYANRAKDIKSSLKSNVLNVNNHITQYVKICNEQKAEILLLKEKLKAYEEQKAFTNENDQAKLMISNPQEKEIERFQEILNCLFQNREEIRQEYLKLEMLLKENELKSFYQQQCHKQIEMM
Chain of Recombinant human KIF18A (1-467His-tagged) protein (P02550 whole entry partner): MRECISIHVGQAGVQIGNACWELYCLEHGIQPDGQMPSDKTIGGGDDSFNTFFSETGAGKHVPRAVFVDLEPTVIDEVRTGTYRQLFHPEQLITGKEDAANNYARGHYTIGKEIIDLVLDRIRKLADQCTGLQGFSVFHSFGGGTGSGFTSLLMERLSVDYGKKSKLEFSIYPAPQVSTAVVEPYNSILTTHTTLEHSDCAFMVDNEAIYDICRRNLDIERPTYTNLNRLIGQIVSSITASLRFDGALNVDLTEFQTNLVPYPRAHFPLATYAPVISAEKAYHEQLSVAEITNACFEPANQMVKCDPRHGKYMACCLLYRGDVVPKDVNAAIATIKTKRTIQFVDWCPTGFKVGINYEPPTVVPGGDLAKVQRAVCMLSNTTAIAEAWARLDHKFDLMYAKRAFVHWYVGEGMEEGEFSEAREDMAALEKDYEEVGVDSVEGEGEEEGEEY
Chain of Recombinant human KIF18A (1-467His-tagged) protein (P02554 whole entry partner): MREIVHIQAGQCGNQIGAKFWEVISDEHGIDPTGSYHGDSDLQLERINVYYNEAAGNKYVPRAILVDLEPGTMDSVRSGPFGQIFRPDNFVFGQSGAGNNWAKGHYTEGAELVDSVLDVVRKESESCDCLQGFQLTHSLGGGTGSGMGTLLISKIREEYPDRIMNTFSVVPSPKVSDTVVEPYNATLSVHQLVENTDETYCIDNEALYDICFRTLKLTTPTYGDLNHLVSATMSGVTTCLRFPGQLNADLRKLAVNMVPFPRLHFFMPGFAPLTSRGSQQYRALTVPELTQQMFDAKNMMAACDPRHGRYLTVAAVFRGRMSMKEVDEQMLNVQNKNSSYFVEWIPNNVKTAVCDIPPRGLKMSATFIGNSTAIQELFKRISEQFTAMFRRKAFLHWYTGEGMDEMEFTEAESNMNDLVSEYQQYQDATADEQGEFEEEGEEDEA

IC50 | Compound
≤ 100 nM | C[C@@H]1CN(c2cc(C(=O)Nc3ccc(NS(=O)(=O)CCO)cc3N3CCC4(CC3)CC4)cc3c2N(C)CC3)CCO1 [Compound 290]
≤ 100 nM | CN1CCc2cc(C(=O)Nc3ccc(NS(=O)(=O)CCO)cc3N3CCC4(CC3)CC4)cc(OCCC(F)(F)F)c21 [Compound 293]
≤ 100 nM | O=C(Nc1ccc(NS(=O)(=O)CCO)cc1N1CCC2(CC1)CC2)c1cc2c(c(N3CCC4(CC4)C3)c1)OCC2 [Compound 38]
≤ 100 nM | CN1CCc2cc(NC(=O)c3ccc(S(=O)(=O)NCCO)cc3N3CCC4(CC3)CC4)nc(N3CCC(C)(F)C3)c21 (stereo not drawn) [Compound 344]
≤ 100 nM | Cn1ccc2cc(NC(=O)c3ccc(S(=O)(=O)NCCO)cc3N3CCC4(CC3)CC4)nc(OC3CCC3)c21 [Compound 471]
≤ 100 nM | O=C(Nc1ccc(S(=O)(=O)NCCO)cc1N1CCC2(CC1)CC2)c1cc2c(c(N3CCC4(CC4)C3)n1)OCC2 [Compound 118]
≤ 100 nM | C[C@@H](CO)S(=O)(=O)Nc1ccc(C(=O)Nc2cc(N3CCC(F)(F)CC3)c3occc3c2)c(N2CCC3(CC2)CC3)c1 [Compound 141]
≤ 100 nM | C[C@@H]1CN(c2cc(NC(=O)c3ccc(S(=O)(=O)N[C@@H](C)CO)cc3N3CCC4(CC3)CC4)cc3c2N(C)CC3)CCO1 [Compound 287]
≤ 100 nM | CN1CCc2cc(C(=O)Nc3ccc(NS(=O)(=O)CCO)cc3N3CCC4(CC3)CC4)cc(N3CCC4(CC4)C3)c21 [Compound 294]
≤ 100 nM | O=C(Nc1cc2c(c(N3CCC(F)(F)CC3)c1)CCC2)c1ccc(NS(=O)(=O)CCO)cc1N1CCC2(CC1)CC2 [Compound 532]
≤ 100 nM | C[C@@H](CO)S(=O)(=O)Nc1ccc(NC(=O)c2cc3ccn(C)c3c(N3CCC(F)(F)CC3)n2)c(N2CCC3(CC2)CC3)c1 [Compound 493]
≤ 100 nM | O=C(Nc1ccc(NS(=O)(=O)CCO)cc1N1CCC2(CC1)CC2)c1cc(N2CCC(F)(F)CC2)c2occc2c1 [Compound 161]
≤ 100 nM | O=C(Nc1cc2ccoc2c(N2CC(F)(F)C2)n1)c1ccc(S(=O)(=O)NCCO)cc1N1CCC2(CC1)CC2 [Compound 212]
≤ 100 nM | O=C(Nc1cc2nc[nH]c2c(N2CCC(F)(F)CC2)n1)c1ccc(NS(=O)(=O)CCO)cc1N1CCC2(CC1)CC2 [Compound 526]
≤ 100 nM | O=C(Nc1cc2c(c(N3CCOCC3)n1)OCC2)c1ccc(S(=O)(=O)NCCO)cc1N1CCC2(CC1)CC2 [Compound 92]
≤ 100 nM | O=C(Nc1cc2ccoc2c(N2CCC(F)CC2)n1)c1ccc(S(=O)(=O)NCCO)cc1N1CCC2(CC1)CC2 [Compound 217]
≤ 100 nM | C[C@@H]1CN(c2cc(NC(=O)c3ccc(NS(=O)(=O)[C@@H](C)CO)cc3N3CCC4(CC3)CC4)cc3ccoc23)CCO1 [Compound 143]
≤ 100 nM | O=C(Nc1cc(OCCC(F)(F)F)c2occc2c1)c1ccc(NS(=O)(=O)CCO)cc1N1CCC2(CC1)CC2 [Compound 133]
≤ 100 nM | CN1CCc2cc(NC(=O)c3ccc(S(=O)(=O)NCCO)cc3N3CCC4(CC3)CC4)cc(N3CC(F)(F)C3)c21 [Compound 276]
≤ 100 nM | CC1(F)CCN(c2nc(NC(=O)c3ccc(NS(=O)(=O)CCO)cc3N3CCC4(CC3)CC4)cc3ccoc23)C1 (stereo not drawn) [Compound 200]
≤ 100 nM | C[C@@H](CO)S(=O)(=O)Nc1ccc(NC(=O)c2cc3c(c(N4CCC(F)(F)CC4)c2)OCC3)c(N2CCC3(CC2)CC3)c1 [Compound 45]

IC50 | Compound
≤ 100 nM | C[C@H](CO)NS(=O)(=O)c1ccc(NC(=O)c2cc3ccn(C)c3c(N3CCC(F)(F)CC3)n2)c(N2CCC3(CC2)CC3)c1 [Compound 510]
≤ 100 nM | Cn1ccc2cc(C(=O)Nc3ccc(S(=O)(=O)NCCO)cc3N3CCC4(CC3)CC4)cc(N3CCC(F)(F)CC3)c21 [Compound 433]
≤ 100 nM | C[C@@H]1CN(c2cc(C(=O)Nc3ccc(S(=O)(=O)NCCO)cc3N3CCC4(CC3)CC4)cc3ccoc23)CCO1 [Compound 178]
≤ 100 nM | C[C@H]1CN(c2cc(NC(=O)c3ccc(NS(=O)(=O)CCO)cc3N3CCC4(CC3)CC4)cc3ccoc23)CCO1 [Compound 131]
≤ 100 nM | CN1CCc2cc(C(=O)Nc3ccc(NS(=O)(=O)CCO)cc3N3CCC4(CC3)CC4)cc(NC(C)(C)CO)c21 [Compound 299]
≤ 100 nM | CN1CCc2cc(NC(=O)c3ccc(NS(=O)(=O)CCO)cc3N3CCC4(CC3)CC4)cc(N3CCC(C)(F)C3)c21 (stereo not drawn) [Compound 264]
≤ 100 nM | O=C(Nc1cc2c(c(N3CCC(F)(F)CC3)n1)NCC2)c1ccc(NS(=O)(=O)CCO)cc1N1CCC2(CC1)CC2 [Compound 524]
≤ 100 nM | CN1CCc2cc(C(=O)Nc3ccc(NS(=O)(=O)CCO)cc3N3CCC4(CC3)CC4)cc(OC3CCC3)c21 [Compound 295]
≤ 100 nM | C[C@@H]1CN(c2nc(C(=O)Nc3ccc(NS(=O)(=O)[C@@H](C)CO)cc3N3CCC4(CC3)CC4)cc3c2N(C)CC3)CCO1 [Compound 367]
≤ 100 nM | C[C@@H]1CN(c2cc(NC(=O)c3ccc(S(=O)(=O)N[C@@H](C)CO)cc3N3CCC4(CC3)CC4)cc3ccoc23)CCO1 [Compound 159]
≤ 100 nM | CN1CCc2cc(NC(=O)c3ccc(NS(=O)(=O)CCO)cc3N3CCC4(CC3)CC4)nc(OC3CCC3)c21 [Compound 327]
≤ 100 nM | O=C(Nc1cc(N2CCC(F)CC2)c2occc2c1)c1ccc(S(=O)(=O)NCCO)cc1N1CCC2(CC1)CC2 [Compound 153]
≤ 100 nM | O=C(Nc1cc(N2CCC(F)(F)CC2)c2ncsc2c1)c1ccc(NS(=O)(=O)CCO)cc1N1CCC2(CC1)CC2 [Compound 519]
≤ 100 nM | Cn1ccc2cc(C(=O)Nc3ccc(NS(=O)(=O)CCO)cc3N3CCC4(CC3)CC4)cc(NC(C)(C)CO)c21 [Compound 427]
≤ 100 nM | C[C@H]1CN(c2nc(C(=O)Nc3ccc(S(=O)(=O)NCCO)cc3N3CCC4(CC3)CC4)cc3ccn(C)c23)CCO1 [Compound 499]
≤ 100 nM | C[C@@H]1CN(c2cc(NC(=O)c3ccc(S(=O)(=O)NCCO)cc3N3CCC4(CC3)CC4)cc3ccoc23)CCO1 [Compound 146]
≤ 100 nM | Cn1ccc2cc(NC(=O)c3ccc(NS(=O)(=O)CCO)cc3N3CCC4(CC3)CC4)nc(N3CCOCC3)c21 [Compound 460]
≤ 100 nM | O=C(Nc1cc2c(c(N3CCC4(CC4)C3)n1)OCC2)c1ccc(S(=O)(=O)NCCO)cc1N1CCC2(CC1)CC2 [Compound 86]
≤ 100 nM | O=C(Nc1cc2scnc2c(N2CCC(F)(F)CC2)n1)c1ccc(NS(=O)(=O)CCO)cc1N1CCC2(CC1)CC2 [Compound 520]
≤ 100 nM | C[C@@H]1CN(c2nc(NC(=O)c3ccc(S(=O)(=O)N[C@@H](C)CO)cc3N3CCC4(CC3)CC4)cc3c2N(C)CC3)CCO1 [Compound 351]
≤ 100 nM | C[C@@H]1CN(c2nc(NC(=O)c3ccc(NS(=O)(=O)[C@H](C)CO)cc3N3CCC4(CC3)CC4)cc3c2OCC3)CCO1 [Compound 80]

IC50 | Compound
≤ 100 nM | CC(C)(CO)Nc1cc(NC(=O)c2ccc(NS(=O)(=O)CCO)cc2N2CCC3(CC2)CC3)cc2ccoc12 [Compound 139]
≤ 100 nM | Cn1ccc2cc(C(=O)Nc3ccc(S(=O)(=O)NCCO)cc3N3CCC4(CC3)CC4)nc(N3CC4CC4C3)c21 (stereo not drawn) [Compound 506]
≤ 100 nM | O=C(Nc1cc2c(c(OCCC(F)(F)F)n1)OCC2)c1ccc(S(=O)(=O)NCCO)cc1N1CCC2(CC1)CC2 [Compound 85]
≤ 100 nM | C[C@@H]1CN(c2cc(NC(=O)c3ccc(S(=O)(=O)NCCO)cc3N3CCC4(CC3)CC4)cc3ccn(C)c23)CCO1 [Compound 402]
≤ 100 nM | C[C@H]1CN(c2nc(C(=O)Nc3ccc(NS(=O)(=O)CCO)cc3N3CCC4(CC3)CC4)cc3c2OCC3)CCO1 [Compound 99]
≤ 100 nM | CC1(F)CCN(c2nc(C(=O)Nc3ccc(NS(=O)(=O)CCO)cc3N3CCC4(CC3)CC4)cc3c2OCC3)C1 (stereo not drawn) [Compound 104]
≤ 100 nM | O=C(Nc1cc(N2CCC(F)(F)CC2)c2scnc2c1)c1ccc(NS(=O)(=O)CCO)cc1N1CCC2(CC1)CC2 [Compound 515]
≤ 100 nM | O=C(Nc1ccc(NS(=O)(=O)CCO)cc1N1CCC2(CC1)CC2)c1cc2ccoc2c(N2CCOCC2)n1 [Compound 236]
≤ 100 nM | C[C@H](CO)NS(=O)(=O)c1ccc(NC(=O)c2cc3c(c(N4CCC(F)(F)CC4)c2)N(C)CC3)c(N2CCC3(CC2)CC3)c1 [Compound 318]
≤ 100 nM | CC1(F)CCN(c2nc(NC(=O)c3ccc(NS(=O)(=O)CCO)cc3N3CCC4(CC3)CC4)cc3c2OCC3)C1 (stereo not drawn) [Compound 72]
≤ 100 nM | O=C(Nc1ccc(S(=O)(=O)NCCO)cc1N1CCC2(CC1)CC2)c1cc2ccoc2c(N2CCC3(CC3)C2)n1 [Compound 246]
≤ 100 nM | C[C@@H]1CN(c2cc(NC(=O)c3ccc(NS(=O)(=O)CCO)cc3N3CCC4(CC3)CC4)cc3ccoc23)CCO1 [Compound 130]
≤ 100 nM | C[C@H](CO)S(=O)(=O)Nc1ccc(NC(=O)c2cc3c(c(N4CCC(F)(F)CC4)n2)N(C)CC3)c(N2CCC3(CC2)CC3)c1 [Compound 366]
≤ 100 nM | O=C(Nc1ccc(S(=O)(=O)NCCO)cc1N1CCC2(CC1)CC2)c1cc2c(c(N3CCC(F)CC3)c1)OCC2 [Compound 57]
≤ 100 nM | C[C@@H](CO)NS(=O)(=O)c1ccc(NC(=O)c2cc3c(c(N4CCC(F)(F)CC4)n2)N(C)CC3)c(N2CCC3(CC2)CC3)c1 [Compound 381]
≤ 100 nM | Cn1ccc2cc(NC(=O)c3ccc(S(=O)(=O)NCCO)cc3N3CCC4(CC3)CC4)nc(OCCC(F)(F)F)c21 [Compound 469]
≤ 100 nM | CN1CCc2cc(C(=O)Nc3ccc(S(=O)(=O)NCCO)cc3N3CCC4(CC3)CC4)cc(OCCC(F)(F)F)c21 [Compound 309]
≤ 100 nM | Cn1ccc2cc(C(=O)Nc3ccc(NS(=O)(=O)CCO)cc3N3CCC4(CC3)CC4)nc(N3CC4CC4C3)c21 (stereo not drawn) [Compound 490]
≤ 100 nM | C[C@@H]1CN(c2cc(NC(=O)c3ccc(NS(=O)(=O)[C@H](C)CO)cc3N3CCC4(CC3)CC4)cc3ccoc23)CCO1 [Compound 144]
≤ 100 nM | CN1CCc2cc(C(=O)Nc3ccc(NS(=O)(=O)CCO)cc3C3CCC4(CC3)CC4)nc(N3CCC4(CC4)C3)c21 [Compound 358]
≤ 100 nM | C[C@H]1CN(c2cc(C(=O)Nc3ccc(NS(=O)(=O)CCO)cc3N3CCC4(CC3)CC4)cc3ccoc23)CCO1 [Compound 163]
